According to US7534418B2, “Imaging agents” (The Regents of the University of Michigan, priority 2004, dated 2009):
“Also recorded” adds a separate entry of the source.

Test system: cardiac sympathetic neurons of the isolated rat heart
Assay: Kinetics of [11C]phenethylguanidines in isolated perfused working rat heart (neuronal uptake and clearance)
Conditions: for Major Clearance Rate T1/2 / half-life: rat
Text: To evaluate radiolabeled phenethylguanidines as imaging agents for nuclear medicine, several [^11C]-labeled phenethylguanidines were synthesized and initial bioevaluations of these compounds performed using an isolated rat heart preparation. […] [^11C]-labeling was used to initially assess the imaging properties of these compounds for the following reasons. A radiosynthetic method for making [^11C]guanidines (see, e.g., Westerberg, G. and Langstrom, B. (1997) J. Labeled Compds. Radiopharm. 39:525-529; herein incorporated by reference in its entirety), allowed efficient synthesis and evaluation of these compounds.
The present invention is not limited to a particular mechanism. Indeed, an understanding of the mechanism is not necessary to practice the present invention. […] Provided below is a detailed description of how these specific kinetic properties offer a significant advantage over currently available sympathetic nerve radiotracers.

Major Clearance Rate T1/2 | Molecule | Neuronal Uptake Rate Kup (isolated rat heart) [mL/min/g] | neuronal retention / clearance (in words) (isolated rat heart) | further results
– | NC(N)=NCc1cccc(I)c1 [MIBG, [^11C]meta-iodobenzylguanidine, reference compound] | 3.65 | – | neuronal uptake rate (in words) (isolated rat heart): very rapid
2.28 h | COc1ccc(CCN[11C](=N)N)cc1 [I-3, [^11C]para-methoxy-phenethylguanidine] | 0.73 | – | –
– | CNC[C@H](O)c1cccc(O)c1 [PHEN, [^11C]phenylephrine, reference compound] | 0.72 | – | half-life: 1.63 h
– | C[C@H](N[11CH3])[C@H](O)c1cccc(O)c1 [HED, [^11C]meta-hydroxyephedrine, reference compound] | 2.35 | – | –
1.93 h | N=[11C](N)NCCc1cccc(F)c1 [II-1, [^11C]meta-fluorophenethylguanidine] | 0.24 | – | –
216.67 h | N=[11C](N)NCC(O)c1cccc(O)c1 (stereo not drawn) [I-7, N-[^11C]guanyl-meta-octopamine] | 0.28 | very long neuronal retention times | neuronal uptake rate (in words) (isolated rat heart): slow and slower than all currently used tracers; neuronal uptake rate (isolated rat heart, 10 min constant infusion, FIG. 5): 0.28 ml/min/g wet; neuronal retention / clearance (in words) (isolated rat heart, listed as GMO): well retained; also recorded: neuronal trapping of GMO is more efficient than the myocardial trapping of FDG
trapped | N=[11C](N)NCCc1cccc(O)c1 [I-4, [^11C]meta-hydroxyphenethylguanidine] | 2.12 | efficient vesicular storage; also recorded: very long retention times | neuronal uptake rate (in words) (isolated rat heart): fast and rapid
– | NC[C@H](O)c1ccc(O)c(O)c1 [NE, [^3H]norepinephrine, reference compound] | 4.44 | – | half-life: > 16.7 h
2.25 h | N=[11C](N)NCCc1ccccc1F [II-3, [^11C]ortho-fluorophenethylguanidine] | 1.76 | – | –
– | 2-[^18F]fluoro-2-deoxy-D-glucose [FDG, reference compound] | – | – | myocardial uptake rate (isolated rat heart, 10 mM glucose, no insulin, 10 min constant infusion, FIG. 5): 0.31 ml/min/g wet
2.38 h | N=[11C](N)NCCc1cccc(I)c1 [III-1, [^11C]meta-iodophenethylguanidine] | 1.10 | approximately the same rate as MIBG | neuronal uptake rate, times slower than MIBG (isolated rat heart, relative to MIBG): around 3 times
20.18 h | C[C@H](N[11C](=N)N)[C@H](O)c1cccc(O)c1 [I-9, N-[^11C]guanyl-(−)-metaraminol] | 0.08 | very long neuronal retention times | neuronal uptake rate (in words) (isolated rat heart): slow and slower than all currently used tracers
– | N=[11C](N)NC[C@H](O)c1ccc(O)c(O)c1 [I-8, N-[^11C]guanyl-norepinephrine] | 0.09 | – | –
20.12 h | N=[11C](N)NCCc1cc(O)ccc1F [II-5, [^11C]ortho-fluoro-meta-hydroxy-phenethylguanidine] | 0.54 | very long neuronal retention times | –
3.33 h | N=[11C](N)NCCc1ccccc1 [I-1, [^11C]phenethylguanidine] | 1.56 | – | –
48.13 h | N=[11C](N)NCCc1ccc(O)cc1 [I-5, [^11C]para-hydroxyphenethylguanidine] | 1.92 | efficient vesicular storage; also recorded: very long retention times | neuronal uptake rate (in words) (isolated rat heart): fast and rapid; neuronal retention / clearance (in words) (isolated rat heart, listed as PHPG): well retained
– | CNC[C@H](O)c1ccc(O)c(O)c1 [EPI, [^11C]epinephrine, reference compound] | 0.60 | – | half-life: 26.3 h
19.3 h | N=[11C](N)NC[C@H](O)c1ccccc1 [I-2, [^11C](−)-β-hydroxyphenethylguanidine] | 0.42 | – | –
23.52 h | N=[11C](N)NCCc1ccc(O)c(O)c1 [I-6, [^11C]3,4-dihydroxyphenethylguanidine] | 1.07 | – | –
4.43 h | N=[11C](N)NCCc1ccc(F)cc1 [II-2, [^11C]para-fluorophenethylguanidine] | 0.63 | – | –
trapped | N=[11C](N)NCCc1ccc(F)c(O)c1 [II-4, [^11C]para-fluoro-meta-hydroxy-phenethylguanidine] | 0.77 | very long neuronal retention times | –
